Reference: paper PMC2394487, “Improved radiotracing of oxytocin receptor-expressing tumours using the new [^111In]-DOTA-Lys^8-deamino-vasotocin analogue” (British Journal of Cancer, 2003)
“Also recorded” adds a separate entry of the source. Positions of bridges follow the written chain, without caps; N, C: chain ends. Non-standard residues stand in square brackets, D forms with d. Residues, ends and D or L forms follow the SMILES beside them. *: point of attachment. DOTA = O=C(O)CN1CCN(CC(=O)O)CCN(CC(=O)*)CCN(CC(=O)O)CC1; Mpa = O=C(O)CCS

Legend:
[1] = test system: OTR-positive cells (MCF7, TS/A, MOG-U-V-W); assay: Displacement of [111In]-DOTA-dLVT binding from intact tumour cells by cold peptides; assay type: cell-based; settings: 5 min preincubation with 100 μM and 1 mM nonradioactive peptide
Description: Binding specificity was determined by evaluating radioactive displacement. Briefly, the cell suspension was incubated for 5 min in the presence of LVT, dLVT or OT 100 μM and 1 mM, or in the presence of unrelated peptides (somatostatin 100 nM and 1 μM, and hexarelin 1 μM) followed by 20 min of incubation with 1 μM [^111In]-DOTA-dLVT. The cells were then centrifuged and washed twice as described above. The activity of the two different agonists and the unrelated peptides in competing with the radioligand was evaluated by measuring cell-bound radioactivity. All of the experiments were performed in triplicate. The statistical analysis was carried out using ANOVA, with a significance cutoff point of 0.05.

human OTR fused to EGFP = biological target: T1, human OTR fused to EGFP (Homo sapiens, UniProt P30559); assay: Peptide-induced receptor internalisation, confocal microscopy, HEK293 cells; assay type: cell-based; settings: peptide 10^−6 M; for receptor internalisation (result in words): up to 60 min
T1 construct: expressed in transfected cells; host or cells: HEK293, stably transfected
T1 sequence (P30559 1-389): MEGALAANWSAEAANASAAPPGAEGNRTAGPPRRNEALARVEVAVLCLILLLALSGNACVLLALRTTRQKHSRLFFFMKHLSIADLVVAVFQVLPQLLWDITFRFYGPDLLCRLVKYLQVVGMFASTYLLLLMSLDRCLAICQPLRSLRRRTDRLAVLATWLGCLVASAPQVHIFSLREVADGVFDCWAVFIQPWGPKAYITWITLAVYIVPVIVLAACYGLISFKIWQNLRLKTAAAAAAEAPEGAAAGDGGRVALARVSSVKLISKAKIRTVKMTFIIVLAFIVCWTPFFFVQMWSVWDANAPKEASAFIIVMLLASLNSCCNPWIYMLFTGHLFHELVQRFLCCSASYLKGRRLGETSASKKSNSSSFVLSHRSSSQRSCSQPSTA
Description: HEK293 cells stably transfected with the human OTR fused to EGFP were grown in six-well dishes, washed twice in serum-free medium, and left to equilibrate for 30 min at 37°C. Peptides were then added at a final concentration of 10^−6 M. At fixed time intervals (5, 15, 30 and 60 min), the cells were washed twice with 10 mM sodium phosphate buffer, pH 7.4, containing 150 mM NaCl (LS buffer), fixed for 20 min at room temperature with 4% (w v^−1) paraformaldehyde, and mounted on glass slides with 90% (v v^−1) glycerol in PBS. The slides were observed under an MRC1024 BioRad confocal microscope.
To assess whether LVT, dLVT and DOTA-dLVT behave like OT to induce receptor internalisation, we applied them to HEK293 cells stably expressing a human OTR C-terminally tagged with the green fluorescent protein EGFP ([Guzzi et al, 2002]; [Rimoldi et al, 2003]).
Figure 4 Laser-scanning confocal microscopy analysis of peptide-induced receptor internalisation. Receptor internalisation was investigated in HEK293 cells stably transfected with the human OTR bearing the EGFP fused at its C-terminus. The cells were grown on coverslips and incubated in serum-free medium for 30 min (Bas), after which the peptides were added at a final concentration of 10^−6 M and the coverslips were fixed at 1, 5, 15, 30 and 60 min.

human V1a receptor = biological target: T2, human V1a receptor (Homo sapiens, UniProt P37288); assay: Competition binding, [3H]-AVP displacement, membranes of transfected COS7 cells
T2 construct: expressed in transfected cells; host or cells: COS7 (monkey kidney), transient electroporation
T2 sequence (P37288 whole entry): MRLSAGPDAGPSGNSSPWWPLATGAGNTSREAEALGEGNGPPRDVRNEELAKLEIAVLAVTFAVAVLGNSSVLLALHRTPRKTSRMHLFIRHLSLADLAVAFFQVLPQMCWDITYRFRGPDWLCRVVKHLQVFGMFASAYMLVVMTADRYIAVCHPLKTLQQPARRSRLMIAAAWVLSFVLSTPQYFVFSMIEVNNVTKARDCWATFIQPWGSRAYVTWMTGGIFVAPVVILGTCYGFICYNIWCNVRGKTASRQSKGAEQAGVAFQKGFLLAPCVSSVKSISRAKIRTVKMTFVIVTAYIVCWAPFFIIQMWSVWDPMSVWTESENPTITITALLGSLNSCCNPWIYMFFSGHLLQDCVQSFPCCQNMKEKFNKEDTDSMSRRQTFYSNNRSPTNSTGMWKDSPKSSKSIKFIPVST
Description: (§1) To determine the LVT, dLVT and DOTA-dLVT affinity constants in comparison with OT, heterologous competition experiments were performed on membranes prepared from monkey kidney COS7 cells transiently transfected by means of electroporation with human OTR, V1a, V2 and V1b cDNAs as previously described ([Chini et al, 1995a]). Briefly, the transfected cells were homogenised with a Dounce glass apparatus, washed twice, and resuspended in binding buffer (50 mM Tris HCl, 5 mM MgCl, pH 7.4). Between 5 and 10 μg of membrane proteins were incubated with a fixed concentration of [^3H]OT (1–2 nM) for 30 min at 30°C in the presence of increasing concentrations of unlabelled peptides. Nonspecific binding was determined in the presence of 1 μM OT. Bound and free radioactivity were separated by filtration over Whatman GF/C filters presoaked in 10 mg ml^−1 BSA. The binding isotherms were analysed using GraphPad Prism.
(§2) Figure 3 Binding of LVT-derived peptides to human OT/AVP receptor subtypes. (A) Comparison of OT and DOTA-dLVT affinity for the human OTR. Competition experiments were performed using membrane preparations of COS7 cells transiently transfected with the wild-type OTR. [^3H]-OT was used at a concentration of 1–2 nM, and nonspecific binding was determined in the presence of […] OT. Data are expressed as the percentage of bound [^3H]-OT in the absence of cold competitor. The curves are representative of three independent assays performed in triplicate. (B) [^111In]-DOTA-dLVT saturation binding assay. The affinity of [^111In]-DOTA-dLVT for the human OTR was measured by incubating increasing amounts of labelled peptide to membrane preparations of COS7 cells transiently transfected with the wild-type OTR. The curve is representative of two independent assays performed in triplicate. (C) Receptor selectivity profile of DOTA-dLVT. Competition experiments were performed using membrane preparations of COS7 cells transiently transfected with the wild-type human OTR, and V1a, V1b and V2 receptors. The membrane preparations of OTR-expressing cells were incubated in the presence of a constant amount of ^3[H]OT (1–2 nM), and nonspecific binding was determined in the presence of 100 μM OT. The membrane preparations of cells expressing V1a, V1b and V2 receptors were incubated in the presence of a constant amount of ^3[H]AVP (2–4 nM), and nonspecific binding was determined in the presence of 100 μM AVP. The data are expressed as percentages of bound [^3H]-ligand in the absence of cold competitor. Each curve is the mean of triplicate determinations of a single representative experiment.

human V1b receptor = biological target: T3, human V1b receptor (Homo sapiens, UniProt P47901); assay: as above
T3 construct: expressed in transfected cells; host or cells: COS7 (monkey kidney), transient electroporation
T3 sequence (P47901 1-424): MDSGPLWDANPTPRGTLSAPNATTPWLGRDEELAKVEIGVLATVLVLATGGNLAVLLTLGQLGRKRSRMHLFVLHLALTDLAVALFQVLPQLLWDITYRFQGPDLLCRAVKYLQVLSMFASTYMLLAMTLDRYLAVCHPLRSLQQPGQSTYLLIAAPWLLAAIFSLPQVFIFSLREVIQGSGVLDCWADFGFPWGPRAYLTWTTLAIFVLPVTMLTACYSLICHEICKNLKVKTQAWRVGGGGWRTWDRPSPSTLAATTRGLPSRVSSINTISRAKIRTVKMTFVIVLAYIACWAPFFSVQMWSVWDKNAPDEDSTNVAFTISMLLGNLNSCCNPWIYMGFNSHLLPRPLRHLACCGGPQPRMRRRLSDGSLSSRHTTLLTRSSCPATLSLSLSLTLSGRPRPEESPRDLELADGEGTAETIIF
Description: as §1, §2

human V2 receptor = biological target: T4, human V2 receptor (Homo sapiens, UniProt P30518); assay: as above
T4 construct: expressed in transfected cells; host or cells: COS7 (monkey kidney), transient electroporation
T4 sequence (P30518 whole entry): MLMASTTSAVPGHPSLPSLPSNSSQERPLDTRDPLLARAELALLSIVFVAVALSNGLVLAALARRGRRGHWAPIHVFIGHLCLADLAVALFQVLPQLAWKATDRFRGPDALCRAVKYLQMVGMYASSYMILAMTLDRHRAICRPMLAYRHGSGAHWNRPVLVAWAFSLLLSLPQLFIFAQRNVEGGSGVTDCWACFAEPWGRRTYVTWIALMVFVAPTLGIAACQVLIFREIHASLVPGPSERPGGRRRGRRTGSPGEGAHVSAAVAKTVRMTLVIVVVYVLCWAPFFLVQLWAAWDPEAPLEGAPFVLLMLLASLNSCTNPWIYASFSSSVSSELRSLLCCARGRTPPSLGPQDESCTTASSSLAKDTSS
Description: as §1, §2

human OTR = biological target: T5, human OTR (Homo sapiens, UniProt P30559); assay: Heterologous competition binding, [3H]-OT displacement, membranes of transfected COS7 cells
T5 construct: expressed in transfected cells; host or cells: COS7 (monkey kidney), transient electroporation
T5 sequence (P30559 1-389): T1 sequence (P30559 1-389)
Description: as §1
LVT, dLVT and DOTA-dLVT affinities for the human OTR were determined by means of heterologous competition experiments on membranes prepared from transiently transfected COS7 cells using [^3H]-OT as radioligand.
Figure 3 Binding of LVT-derived peptides to human OT/AVP receptor subtypes. (A) Comparison of OT and DOTA-dLVT affinity for the human OTR. […] [^3H]-OT was used at a concentration of 1–2 nM, and nonspecific binding was determined in the presence of […] OT. Data are expressed as the percentage of bound [^3H]-OT in the absence of cold competitor. […] The affinity of [^111In]-DOTA-dLVT for the human OTR was measured by incubating increasing amounts of labelled peptide to membrane preparations of COS7 cells transiently transfected with the wild-type OTR. […] The membrane preparations of OTR-expressing cells were incubated in the presence of a constant amount of ^3[H]OT (1–2 nM), and nonspecific binding was determined in the presence of 100 μM OT. The membrane preparations of cells expressing V1a, V1b and V2 receptors were incubated in the presence of a constant amount of ^3[H]AVP (2–4 nM), and nonspecific binding was determined in the presence of 100 μM AVP. […]

[2] = displacement of [3H]-AVP, mean±s.e. of three experiments

Molecule | specific [111In]-DOTA-dLVT binding displaced [1] | time after application at which punctate fluorescence (endocytotic vesicles) is seen (human OTR fused to EGFP) [min] | receptor internalisation (result in words) (human OTR fused to EGFP) | lower affinity at V1a receptor relative to human OTR (human V1a receptor) [fold] | lower affinity at V1b receptor relative to human OTR (human V1b receptor) [fold] | concentrations at which V2 receptor binds the peptide (human V2 receptor; in words) | enhancement of affinity for the hOTR by addition of DOTA group at position 8 of dLVT (human OTR; compared to dLVT (to both OT and dLVT)) | Ki (human OTR; displacement of [3H]-OT, mean±s.e. of three experiments) [nM] | Ki (human V1a receptor; [2]) [nM] | Ki (human V1b receptor; [2]) [nM] | decrease in binding affinity at V2 receptor relative to human OTR (human V2 receptor) [fold] | Ki (human V2 receptor; [2]) [nM]
oxytocin [OT] | more than 92% | – | – | – | – | – | – | – | – | – | – | –
CC[C@H](C)[C@@H]1NC(=O)[C@H](Cc2ccc(O)cc2)NC(=O)[C@@H](N)CSSC[C@@H](C(=O)N2CCC[C@H]2C(=O)N[C@@H](CCCCN)C(=O)NCC(N)=O)NC(=O)[C@H](CC(N)=O)NC(=O)[C@H](CCC(N)=O)NC1=O [LVT, [Lys8]-vasotocin, reference compound] (HELM PEPTIDE1{C.Y.I.Q.N.C.P.K.G.[am]}$PEPTIDE1,PEPTIDE1,1:R3-6:R3$$$V2.0; C-terminus assumed; bridges inferred) | more than 92% | 5 | rapid and persistent receptor internalisation | 10 | 10 | only at micromolar concentrations | – | – | – | – | – | –
CC[C@H](C)[C@@H]1NC(=O)[C@H](Cc2ccc(O)cc2)NC(=O)CCSSC[C@@H](C(=O)N2CCC[C@H]2C(=O)N[C@@H](CCCCNC(=O)CN2CCN(CC(=O)O)CCN(CC(=O)O)CCN(CC(=O)O)CC2)C(=O)NCC(N)=O)NC(=O)[C@H](CC(N)=O)NC(=O)[C@H](CCC(N)=O)NC1=O [DOTA-dLVT] ([Mpa]YIQNCPK(DOTA)G-NH2; disulfide 1-6) | – | 5 | capable of inducing a persistent internalisation; also recorded: rapid and persistent receptor internalisation | ≥ 300 | ≥ 300 | – | 2–3 fold | 1.21 ± 0.199 | 370 ± 58 | 640 ± 177 | ≥ 300 | 3560 ± 280
